# From patent US7884115B2, “Methods and compositions for the treatment of pain and other neurological conditions” (Allergan, Inc., priority 2004, dated 2011)
# “Also recorded” adds a separate entry of the source.
# Legend:
# [1] = tested on: allodynia induced by N-methyl-D-aspartate (NMDA); experiment: Mouse NMDA model of allodynia; type: in vivo
# Method: (§1) In variants of this model, allodynia can be induced using 100 ng N-methyl-D-aspartate (NMDA) in DMSO intrathecally, or IP phenylephrine (PE) 100 ng/kg formulated in dH2O. In either model, the compounds are formulated in d-H2O and given in a volume of 1 ml/kg body weight for intraperitoneal (IP) dosing. Six mice per group are rendered allodynic by injection of one of the following agents: 300 ng/kg sulprostone in DMSO IP, 100 ng/kg phenylephrine (PE) in dH2O IP, or 100 ng NMDA in DMSO intrathecally (IT). Fifteen minutes before administration of the allodynia-inducing agents, the experimental mice are given 1 mg/kg NB-DNJ. Thirty (30) minutes following administration of NB-DNJ, the allodynic response is monitored as described by brushing the flank of each mouse with a paint brush. Six mice per group are given one of the following: given 100 μg/kg NB-DNJ, 300 μg/kg NB-DNJ, 1 mg/kg NB-DNJ, or 3 mg/kg 1-deoxynojirimycin. After 15 minutes the mice are rendered allodynic by injection of 200 ng NMDA in DMSO IT. Starting thirty (30) minutes following administration of NB-DNJ, the allodynic response of each mouse is monitored by brushing the flank of the mouse with a paint brush. Five to six mice per group are rendered allodynic by injection of one of the following: 300 ng/kg sulprostone IP, 100 ng/kg phenylephrine (PE) IP, or 100 ng NMDA intrathecally (IT). Fifteen minutes prior to the induction of allodynia, the mice are given D-glucaro-delta-lactam IP at […], or 1 mg/kg. PE or NMDA-treated mice are given 1 mg/kg D-glucaro-delta-lactam IP.
# [2] = tested on: allodynia induced by phenylephrine (PE); experiment: Mouse phenylephrine (PE) model of allodynia; type: in vivo
# Method: as §1, with “brush.” for “brush. Six mice per group are given one of the following: given 100 μg/kg NB-DNJ, 300 μg/kg NB-DNJ, 1 mg/kg NB-DNJ, or 3 mg/kg 1-deoxynojirimycin. After 15 minutes the mice are rendered allodynic by injection of 200 ng NMDA in DMSO IT. Starting thirty (30) minutes following administration of NB-DNJ, the allodynic response of each mouse is monitored by brushing the flank of the mouse with a paint brush.”
# [3] = tested on: primary rat brain cortical neurons treated with kainate; experiment: Kainate-induced excitotoxicity in primary cortical neurons (LDH release); type: cell-based
# Method: (§2) Primary rat brain cortical neurons were cultured as follows. In brief, rat cerebral cortices were removed from brains of the 16 day-old-fetal rats. The neocortices were gently triturated and plated on 24 well plates (300,000 viable cells/cm2) in plating Modified Eagle's Medium (MEM) supplemented with 10% horse serum, 10% fetal calf serum and 2 mM L-glutamine. Cultures were maintained at 37 C in a humidified 5% CO2 atmosphere.
# (§3) After 4 days' growth (DIV 4), half of the medium was replaced by a medium identical to the plating medium but lacking calf serum. At DIV4, 10 μM 5-fluoro-2-deoxyuridine was included to each well to halt overgrowth of glia. Mixed cultures of neurons and glia were then fed at DIV7 and DIV11 with MEM plus 5% horse serum previously conditioned by growth with cortical astrocytes for 24 h.
# Excitotoxicity was induced in these cells by addition of 50 μM kainate or 20 μM N-methyl-D-aspartate plus 10 μM D-serine to each well.
# (§4) Under the experimental conditions used, i.e. after 6 hours addition of excitotoxic agent, 40% toxicity is generally observed and measured by determination of the amount of lactate dehydrogenase (LDH) released into the medium following membrane degradation. Such assay methods are well-known; a kit for conducting a homogeneous form of the LDH assay format is sold by Promega under the name CytoTox ONE® Homogenous Membrane Integrity Assay. Overall cell injury was assessed microscopically under phase-contrast optics or by measuring amount of LDH released into the bathing medium 24 hr after neurotoxic insults (see, e.g., Koh and Choi, J. NEUROSCI. METHODS 20: 83-90, 1987), hereby incorporated by reference herein.
# […] The final results are normalized optical density (OD) values (treated cells/untreated control cells), where a value of 1 represents 100% neuronal survival and a value of 0.6 represents 60% survival.
# [4] = tested on: primary rat brain cortical neurons treated with NMDA plus D-serine; experiment: NMDA/serine-induced excitotoxicity in primary cortical neurons (LDH release); type: cell-based; conditions: 20 μM NMDA plus 10 μM D-serine, 3 h or 16 h preincubation; FIGS. 8A and 8B
# Method: as §2
# as §3, with “h. […]” for “h.”
# as §4, with “Such assay methods are well-known; a kit for conducting a homogeneous form of the LDH assay format is sold by Promega under the name CytoTox ONE® Homogenous Membrane Integrity Assay.” left out, “herein. […]” for “herein.”
# [5] = tested on: primary rat brain cortical neurons; experiment: Intrinsic cytotoxicity in neuronal cultures; type: cell-based
# Method: as §2, §3
# as §4, with “Such assay methods are well-known; a kit for conducting a homogeneous form of the LDH assay format is sold by Promega under the name CytoTox ONE® Homogenous Membrane Integrity Assay.” left out, “herein. […]” for “herein.”
# [6] = cited from earlier work
SMILES,"pain reduction at different doses ([1]; 100 μg/kg, 300 μg/kg, 1 mg/kg, 15 min before 200 ng NMDA IT, FIG. 2)","reversal of the allodynic response ([1]; 1 mg/kg given 15 min before NMDA 100 ng IT, FIG. 1)","reversal of the allodynic response ([2]; 1 mg/kg given 15 min before PE 100 ng/kg IP, FIG. 1)","attenuation of kainate-induced excitotoxicity ([3]; 50 μM kainate, compound added without pre-incubation, FIG. 7A)","neuronal death ([3]; kainate-induced toxicity, various concentrations)",neuronal death [4],intrinsic cytotoxicity [5],aqueous solubility [6],"analgesic effect ([1]; 1 mg/kg IP, 15 min before NMDA 100 ng IT, FIG. 4)","analgesic effect ([2]; 1 mg/kg IP, 15 min before PE 100 ng/kg IP, FIG. 4)"
"CCCCN1C[C@H](O)[C@@H](O)[C@H](O)[C@H]1CO [NB-DNJ, N-butyl-1-deoxy-nojirimycin]",dose response,significant reversal,no reversal,attenuation of kainate-induced excitotoxicity; also recorded: active without any preincubation,reduced neuronal death in a dose-dependent manner,reduced neuronal death in a dose-dependent manner,do not show any significant intrinsic cytotoxicity,greater than 1000 mg/ml,,
O=C(O)[C@H]1NC(=O)[C@H](O)[C@@H](O)[C@@H]1O [D-glucaro-delta-lactam],,,,,,,,,able to achieve an analgesic effect,able to achieve an analgesic effect
